In US20150018369A1 (priority 2012, published 2015):

Columns and labels:
AI receptors [1] = test: GTPγS binding in HEK293 cell homogenates; assay type: biochemical, human
Description: (§1) When comparing the overall amino acid sequence of GPR124 to that of CB1 and CB2 receptors no significant homology was found. However, when focusing the comparison to the amino acid sequence encoding for the third transmembrane domains of GPR124 and CB2 receptors, 84% homology was found (FIG. 5a). […] Therefore, it is likely that ST-1, ST-11, and other AI compounds interact directly with the third transmembrane domain of GPR124. To determine the signaling mechanism of AI receptors, effect of ST-11 in HEX293 cells, which express GPR124 endogenously and commonly used to study GPCR pharmacology and signaling pathway, was tested.

[2] = test system: mouse microglia in primary culture; test: Microglia cell migration; assay type: cell-based
T98 g cells = test: Signaling pathway and cell death in T98 g cells; assay type: cell-based, human
Protocol: To determine the signaling pathway activated by AI receptors, T98 g cells were treated and changes in select kinase and mediatior of cell death were measured.

[3] = Accelerating rotarod, acute toxicity in healthy mice; assay type: in vivo, mouse
Protocol: As an initial step to test the therapeutic efficacy of ST-11 in vivo, the pharmacokinetic profile and acme toxicity profile of ST-11 in healthy mice were determined. FIG. 13 illustrates an LC-MS chromatogram and calibration curve of ST-11 (a & 13). PK profile of ST-11 (c, d, e & f).

[4] = test system: mouse microglia in primary culture; test: cAMP production in mouse microglia; assay type: cell-based
DBT tumors = DBT tumors implanted in BalbC mice; assay type: in vivo, mouse; conditions: treated daily over 2 weeks
AI receptors [5] = test: cAMP production in HEK293 cells; assay type: cell-based, human
Description: as §1

[6] = test system: AI receptors (mouse microglia in primary culture); test: [3H]-WIN55212 binding in mouse microglia
DBT cells = test: Killing of DBT mouse astrocytoma cells; assay type: cell-based; conditions: FIG. 10c
Description: Cannabinoid receptors are known to regulate cell migration.

With `CCn1c(C)c(C(=O)c2ccc(C)c3ccccc23)c2ccccc21` [ST-11] the GTPγS binding (AI receptors [1]) was “activation of GTP[…]S binding”, the “microglia cell migration stimulated by ATP” value [2] was “inhibits” and the “cell death (cell number, nuclear fragmentation, cell blebbing)” value (T98 g cells; after 48 hrs) was “followed by cell death”. The PARP cleavage (T98 g cells; within hours) was “cleaves PARP”, the “activation of PLK-1” value (T98 g cells; within hours) was “induces the activation of PLK-1” and the “caspase 3 activation” value (T98 g cells; within hours) was “caspase 3 activation”. For the same molecule, the “locomotor activity on an accelerating rotarod” value [3] was “does not influence locomotor activity”, the “cAMP production stimulated by Isoproterenol” value [4] was “inhibits cAMP production” and the “number of lymphocytes in DBT tumors” value (DBT tumors) was “increases the number of lymphocytes”. The “number of microglia in DBT tumors” value (DBT tumors) was “increases”, the cAMP production (AI receptors [5]) was “inhibition of cAMP production” and the “competition for [3H]-WIN55212 binding” value [6] was “competed”. For the same molecule, the “killing of DBT cells” value (DBT cells) was “kills DBT cells”.
